Assay results as given in US20260023068A1, “USE OF A FBXO42 SPECIFIC INHIBITOR IN TREATING NOTCH SIGNALING-DEPENDENT DISEASE” (WESTLAKE UNIVERSITY, priority 2022, published 2026).

Legend:
[1] = system: global protein ubiquitination; assay: Global mass spectrometry-based analysis of protein ubiquitination; type: cell-based; settings: global ubiquitination changes upon MLN4924 treatment (FIGS. 5E and 5F)
Experimental: (A) Endogenous RBPJ ubiquitination was measured under FBXO42 overexpression after immunoprecipitation with antibody against RBPJ and immunoblotted for Ub. Five percent lysate was used as the input control. (B) cSFB-RBPJ, hemagglutinin-ubiquitin (HA-Ub) and Myc-FBXO42 WT or AK mutant were cotransfected into HEK293T cells as indicated and treated with MG132 for 4 h. The cell lysates were incubated with S beads and analyzed by western blotting for RBPJ polyubiquitination detection. (C) Peptide sequence with ubiquitination modification identified in WT and FBXO42 KO cells. (D) HEK293T cells were cotransfected with Myc-FBXO42, HA-Ub WT along with cSFB-RBPJ WT or its lysine mutants as indicated. The cell lysates were incubated with S beads and analyzed by western blotting for RBPJ polyubiquitination detection. (E) Summary of identified peptides in global ubiquitination analysis upon MLN4924 treatment or FBXO42 depletion. (F) Percentage of ubiquitinated peptides among different groups. (G and H) Gene Ontology analysis of these proteins with differential ubiquitination modification. (I and J) Venn diagram showing the overlap between identified differential proteins with reported Notch interactors.
Global protein ubiquitination analysis was performed according to the manufacture's guidance (5562, CST). […]

[2] = system: JURKAT and HSB2 cells; assay: Soft agar colony formation assay (anchorage-independent growth); type: cell-based, human; settings: JURKAT and HSB2, soft agar colony formation (FIG. 12O-R)
Experimental: FBXO42-KO cells were rescued with WT FBXO42 or F-box deletion mutant and were used in the following studies. (A-C) The mRNA levels of Notch target genes in the treated HEK293T (A), JURKAT (B) and HSB2 (C) cells were determined by qPCR. (D-G) The invasion abilities of the treated JURKAT (D) and HSB2 (F) cells were evaluated using a 3D culture system with Matrigel. Scale bars, 50 μm. The respective average diameter of the spheres in D and F was summarized, respectively (E and G). (H-K) Anchorage-independent growth of the rescued JURKAT (H) and HSB2 (J) cells was measured using a soft agar colony formation assay. The number of colonies in H and J was counted and summarized, respectively (I and K). (L) JURKAT and HSB2 cells were treated with MLN4924 in a concentration-gradient manner for 36 h and then evaluated for the cell viability using cell counting kit-8 assay. (M and N) The expression of Notch target genes in MLN4924-treated JURKAT (M) and HSB2 (N) cells were determined by qPCR. (O-R) Anchorage-independent growth of MLN4924-treated JURKAT (0) and HSB2 (Q) cells was measured using soft agar colony formation assays. The number of colonies was counted and summarized (P and R). (A-R, n=3) The data are shown as the mean±SEM from the independent experiments. P values were calculated using one-way ANOVA for multiple comparisons or two-tailed Student's t-tests. *P<0.05, ** P<0.01, *** P<0.001.

[3] = system: FBXO42-mediated K63-linked polyubiquitination of RBPJ; assay: In vivo ubiquitination assay of RBPJ in transfected HEK293T cells; type: cell-based, human; settings: DMSO or MLN4924, western blotting (FIG. 4K)
Experimental: (A) cSFB-RBPJ, hemagglutinin-ubiquitin (HA-Ub) and Myc-FBXO42 WT were cotransfected into HEK293T cells as indicated and treated with or without MG132 for 4 h. The cell lysates were incubated with S beads and analyzed by western blotting for RBPJ polyubiquitination detection. (B) Immunoprecipitated endogenous RBPJ products from WT and FBXO42 KO cells were immunoblotted for Ub. (C) cSFB-RBPJ, hemagglutinin-ubiquitin (HA-Ub) and Myc-FBXO42 WT or AF mutant were cotransfected into HEK293T cells. The cell lysate was collected and analyzed for RBPJ polyubiquitination. (D) HEK293T cells were transfected with cSFB-RBPJ, Myc-FBXO42 and HA-Ub with or without FLAG-NICD1 overexpression. The cell lysates were incubated with S beads and analyzed by western blotting for RBPJ polyubiquitination detection. […] The degree of RBPJ polyubiquitination was evaluated as described above. […] The cell lysates were incubated with S beads and analyzed by western blotting for RBPJ polyubiquitination detection. […] (J) Quantitation of the results shown in (I). […] The cell lysates were analyzed for RBPJ ubiquitination. […] (P) Efficiency of RBPJ short interfering RNAs (siRNAs) detected via western blotting. […] Quantitative data are presented as mean±SEM. P values were calculated using two-tailed Student's t-tests or ANOVA for multiple comparison. *P<0.05, **P<0.01, ***P<0.001, ##P<0.01 vs. FBXO42. […]

[4] = system: Notch target genes HES1, HES5 and c-MYC; assay: qPCR of Notch target genes in HEK293T cells; type: cell-based, human; settings: mRNA, qPCR (FIG. 4O)

SMILES: NS(=O)(=O)OC[C@@H]1C[C@@H](n2ccc3c(N[C@H]4CCc5ccccc54)ncnc32)C[C@@H]1O [MLN4924]
- percentage of ubiquitinated peptides [1]: decreased
- anchorage-independent growth of leukemia cells [2]: diminished
- FBXO42-mediated K63-linked polyubiquitination of RBPJ [3]: effectively abrogated
- expression of Notch target genes HES1, HES5 and c-MYC [4]: suppressed
